Data reported in ChEMBL document CHEMBL3045652, “Biorational glycol diesters as dietary toxins versus bioefficacy of sucrose octanoate against lepidopteran larvae” (Ind Crops Prod, 2012).
In brackets after ≈: the same amount, converted by molar mass.

How the values were obtained:
[1] = test system: Helicoverpa armigera; experiment: Insecticidal activity against second-instar larval stage of Helicoverpa armigera fed with artificial diet containing compound assessed as growth inhibition after 7 days; format: functional, organism-based; conditions: for EC50: 168 h
[2] = test system: Spodoptera litura; experiment: Insecticidal activity against second-instar larval stage of Spodoptera litura fed with artificial diet containing compound assessed as growth inhibition after 7 days; format: functional, organism-based; conditions: for EC50: 168 h

Structure (SMILES) | growth inhibition (GI) [1] | EC50 [1] [µg/mL] | growth inhibition (GI) [2] | EC50 [2] [µg/mL]
CCCC(=O)OCC(C)COC(=O)CCC | Dose-dependent effect | 4230 (≈ 18.4 mM) | Dose-dependent effect | 4360 (≈ 18.9 mM)
CCCCCC(=O)OCCOCCOC(=O)CCCCC [DIETHYLENE GLYCOL DIHEXANOATE] | Dose-dependent effect | 3900 (≈ 12.9 mM) | Dose-dependent effect | 1940 (≈ 6.42 mM)
CCCCC(=O)OCC(C)COC(=O)CCCC | Dose-dependent effect | 7840 (≈ 30.3 mM) | Dose-dependent effect | 7020 (≈ 27.2 mM)
CC(C)C(=O)OC1CCC(OC2CCC(OC(=O)C(C)C)CC2)CC1 (centres undefined) [4-(4-O-ISOBUTANOYLCYCLOHEXYLOXY)-CYCLOHEXYL ISOBUTANOATE] | Dose-dependent effect | 8110 (≈ 22.9 mM) | Dose-dependent effect | 7860 (≈ 22.2 mM)
CC(C)C(=O)OCCOC(=O)C(C)C [ETHYLENE GLYCOL DIISOBUTANOATE] | Dose-dependent effect | 5880 (≈ 29.1 mM) | Dose-dependent effect | 5000 (≈ 24.7 mM)
CCCCCCCC(=O)OCCOCCOC(=O)CCCCCCC [DIETHYLENE GLYCOL DIOCTANOATE] | Dose-dependent effect | 2880 (≈ 8.03 mM) | Dose-dependent effect | 1540 (≈ 4.3 mM)
CCCCCCCC(=O)OCCCCCOC(=O)CCCCCCC [PENTANE-1,5-DIOCTANOATE] | Dose-dependent effect | 4670 (≈ 13.1 mM) | Dose-dependent effect | 4760 (≈ 13.4 mM)
CCCC(=O)OCCOCCOC(=O)CCC [DIETHYLENE GLYCOL DIBUTANOATE] | Dose-dependent effect | 2890 (≈ 11.7 mM) | Dose-dependent effect | 1760 (≈ 7.15 mM)
CCCC(=O)OC1CCC(OC2CCC(OC(=O)CCC)CC2)CC1 (centres undefined) [4-(4-O-BUTANOYLCYCLOHEXYLOXY)-CYCLOHEXYL BUTANOATE] | Dose-dependent effect | 7230 (≈ 20.4 mM) | Dose-dependent effect | 6120 (≈ 17.3 mM)
CCCC(CC)C(=O)OCCOC(=O)C(CC)CCC (centres undefined) | Dose-dependent effect | 2440 (≈ 8.52 mM) | Dose-dependent effect | 2800 (≈ 9.78 mM)
CCCCCCCC(=O)OCC(C)COC(=O)CCCCCCC | Dose-dependent effect | 4540 (≈ 13.3 mM) | Dose-dependent effect | 6210 (≈ 18.1 mM)
CCCC(=O)OCCCCCOC(=O)CCC [PENTANE-1,5-DIBUTANOATE] | Dose-dependent effect | 4500 (≈ 18.4 mM) | Dose-dependent effect | 4860 (≈ 19.9 mM)
CCCCC(=O)OCCOCCOC(=O)CCCC [DIETHYLENE GLYCOL DIPENTANOATE] | Dose-dependent effect | 3870 (≈ 14.1 mM) | Dose-dependent effect | 1880 (≈ 6.85 mM)
CC(COC(=O)C(C)C)COC(=O)C(C)C | Dose-dependent effect | 8170 (≈ 35.5 mM) | Dose-dependent effect | 7540 (≈ 32.7 mM)
CCCCC(=O)OC1CCC(OC2CCC(OC(=O)CCCC)CC2)CC1 (centres undefined) [4-(4-O-PENTANOYLCYCLOHEXYLOXY)-CYCLOHEXYL PENTANOATE] | Dose-dependent effect | 8240 (≈ 21.5 mM) | Dose-dependent effect | 7890 (≈ 20.6 mM)
CCCCCC(=O)OCCCCCOC(=O)CCCCC [PENTANE-1,5-DIHEXANOATE] | Dose-dependent effect | 8050 (≈ 26.8 mM) | Dose-dependent effect | 7510 (≈ 25 mM)
CCCCCC(=O)OCC(C)COC(=O)CCCCC | Dose-dependent effect | 7760 (≈ 27.1 mM) | Dose-dependent effect | 7580 (≈ 26.5 mM)
CCCCCCCC(=O)OC1CCC(OC2CCC(OC(=O)CCCCCCC)CC2)CC1 (centres undefined) [4-(4-O-OCTANOYLCYCLOHEXYLOXY)-CYCLOHEXYL OCTANOATE] | Dose-dependent effect | 6340 (≈ 13.6 mM) | Dose-dependent effect | 5760 (≈ 12.3 mM)
CC(C)C(=O)OCCCCCOC(=O)C(C)C [PENTANE-1,5-DI-ISOBUTANOATE] | Dose-dependent effect | 7580 (≈ 31 mM) | Dose-dependent effect | 7660 (≈ 31.4 mM)
CCCCC(=O)OCC(C)OC(=O)CCCC (centres undefined) | Dose-dependent effect | 5540 (≈ 22.7 mM) | Dose-dependent effect | 4240 (≈ 17.4 mM)
CCCCCC(=O)OCC(C)OC(=O)CCCCC (centres undefined) | Dose-dependent effect | 5260 (≈ 19.3 mM) | Dose-dependent effect | 3810 (≈ 14 mM)
CCCCC(=O)OCCOCCOCCOC(=O)CCCC [TRIETHYLENE GLYCOL DIPENTANOATE] | Dose-dependent effect | 2090 (≈ 6.56 mM) | Dose-dependent effect | 1540 (≈ 4.84 mM)
CCCC(CC)C(=O)OC1CCC(OC2CCC(OC(=O)C(CC)CCC)CC2)CC1 (centres undefined) [4-(4-O-(2-ETHYL)HEXANOYLCYCLOHEXYLOXY)-CYCLOHEXYL-(2-ETHYL)HEXANOATE] | Dose-dependent effect | 7000 (≈ 16 mM) | Dose-dependent effect | 6270 (≈ 14.3 mM)
CCCC(CC)C(=O)OCC(C)OC(=O)C(CC)CCC (centres undefined) | Dose-dependent effect | 4860 (≈ 16.2 mM) | Dose-dependent effect | 3760 (≈ 12.5 mM)
CCCCCC(=O)OCCOC(=O)CCCCC [ETHYLENE GLYCOL DIHEXANOATE] | Dose-dependent effect | 2160 (≈ 8.36 mM) | Dose-dependent effect | 1780 (≈ 6.89 mM)
CC(C)C(=O)OCCOCCOC(=O)C(C)C [DIETHYLENE GLYCOL DIISOBUTANOATE] | Dose-dependent effect | 6450 (≈ 26.2 mM) | Dose-dependent effect | 5120 (≈ 20.8 mM)
